Laboratory results: patent US20080281105A1, “Novel Quinolinium Salts and Derivatives” (IMMUSOL INCORPORATED, priority 2005, published 2008)

Legend:
HCT-116 = test: Liquid growth culture with and without added glucose (alamarBlue); format: cell-based; conditions: Homo sapiens
Text: (§1) The method is as follows:

Panc-1 [1] = test: as above; format: cell-based; conditions: Homo sapiens
Text: as §1

Pc3M/N [2] = test: as above; format: cell-based; conditions: Homo sapiens, PC-3M
Text: as §1

MCF7 [3] = test: Cell growth in liquid culture (alamarBlue); conditions: Homo sapiens, MCF7, 72 h, read-out: IC50 (uM) Liquid culture
MDA-231 [4] = test: Cell growth in liquid culture (alamarBlue); conditions: Homo sapiens, MDA-MB-231, 72 h, read-out: IC50 (uM) Liquid culture
MDA_MB-435 [5] = test: Cell growth in liquid culture (alamarBlue); conditions: Homo sapiens, MDA-MB-435, 72 h, read-out: IC50 (uM) Liquid culture
HCT116 = test: Cell growth in liquid culture (alamarBlue); conditions: Homo sapiens, HCT-116, 72 h, read-out: IC50 (uM) Liquid culture
Pc3M/N [6] = test: Cell growth in liquid culture (alamarBlue); conditions: Homo sapiens, PC-3M, 72 h, read-out: IC50 (uM) Liquid culture
Panc-1 [7] = test: Cell growth in liquid culture (alamarBlue); conditions: Homo sapiens, PANC-1, 72 h, read-out: IC50 (uM) Liquid culture
ASPC-1 = test: Cell growth in liquid culture (alamarBlue); conditions: Homo sapiens, ASPC1, 72 h, read-out: IC50 (uM) Liquid culture
OVCAR-1 = test: Cell growth in liquid culture (alamarBlue); conditions: OVCAR1, 72 h, read-out: IC50 (uM) Liquid culture
SK-OV-3 = test: Cell growth in liquid culture (alamarBlue); conditions: Homo sapiens, SK-OV-3, 72 h, read-out: IC50 (uM) Liquid culture
A549 = test: Cell growth in liquid culture (alamarBlue); conditions: Homo sapiens, A549, 72 h, read-out: IC50 (uM) Liquid culture
A2058 = test: Cell growth in liquid culture (alamarBlue); conditions: Homo sapiens, A2058, 72 h, read-out: IC50 (uM) Liquid culture
HUVEC = test: Cell growth in liquid culture (alamarBlue); conditions: Homo sapiens, 72 h, read-out: IC50 (uM) Liquid culture
MCF7 [8] = test: Cell growth in soft agar culture (alamarBlue); conditions: Homo sapiens, MCF7, 168 h, read-out: IC50 (uM) Soft agar
T47D = test: Cell growth in soft agar culture (alamarBlue); conditions: Homo sapiens, 168 h, read-out: IC50 (uM) Soft agar
MDA-231 [9] = test: Cell growth in soft agar culture (alamarBlue); conditions: Homo sapiens, MDA-MB-231, 168 h, read-out: IC50 (uM) Soft agar
MDA_MB-435 [10] = test: Cell growth in soft agar culture (alamarBlue); conditions: Homo sapiens, MDA-MB-435, 168 h, read-out: IC50 (uM) Soft agar
HS578 = test: Cell growth in soft agar culture (alamarBlue); conditions: Hs578, 168 h, read-out: IC50 (uM) Soft agar
HCT116-P53(−) = test: Cell growth in soft agar culture (alamarBlue); conditions: 168 h, read-out: IC50 (uM) Soft agar
SW480 = test: Cell growth in soft agar culture (alamarBlue); conditions: Homo sapiens, SW480, 168 h, read-out: IC50 (uM) Soft agar
DLD1 = test: Cell growth in soft agar culture (alamarBlue); conditions: Homo sapiens, DLD-1, 168 h, read-out: IC50 (uM) Soft agar
PC3 = test: Cell growth in soft agar culture (alamarBlue); conditions: Homo sapiens, PC-3, 168 h, read-out: IC50 (uM) Soft agar
DU145 = test: Cell growth in soft agar culture (alamarBlue); conditions: Homo sapiens, DU-145, 168 h, read-out: IC50 (uM) Soft agar
OVCAR-5 = test: Cell growth in soft agar culture (alamarBlue); conditions: Homo sapiens, OVCAR-5, 168 h, read-out: IC50 (uM) Soft agar
NCI-H460 = test: Cell growth in soft agar culture (alamarBlue); conditions: Homo sapiens, NCI-H460, 168 h, read-out: IC50 (uM) Soft agar
UACC257 = test: Cell growth in soft agar culture (alamarBlue); conditions: Homo sapiens, UACC-257, 168 h, read-out: IC50 (uM) Soft agar

Q: Which IC80 (HCT-116; HCT-116, HCT-116, (+) Glu) does the source give for `Cc1cc(/C=C/c2ccc3cc(N(C)C)ccc3[n+]2C)c(C)n1-c1ccccc1` [Example 1, Pyrvinium Phosphate] here?
A: 1000 nM

Q: What about the IC80 (HCT-116; HCT-116, HCT-116, (−) Glu) of the same compound?
A: 100 nM

Q: What about the IC80 (Panc-1 [1]; PANC-1, Panc-1, (+) Glu) of the same compound?
A: > 1000 nM

Q: And the IC80 (Panc-1 [1]; PANC-1, Panc-1, (−) Glu)?
A: 100 nM

Q: And the IC80 (Pc3M/N [2]; (+) Glu)?
A: 1000 nM

Q: What about the IC80 (Pc3M/N [2]; (−) Glu) of the same compound?
A: 100 nM

Q: What about the IC50 (MCF7 [3]) of the same compound?
A: 0.03 to 0.1 µM

Q: What about the IC50 (MDA-231 [4]) of the same compound?
A: 0.1 to 0.3 µM

Q: And the IC50 (MDA_MB-435 [5])?
A: 0.3 to 1 µM

Q: And the IC50 (HCT116)?
A: > 1 µM

Q: And the IC50 (Pc3M/N [6])?
A: > 1 µM

Q: What about the IC50 (Panc-1 [7]) of the same compound?
A: 0.3 to 1 µM

Q: And the IC50 (ASPC-1)?
A: 0.3 to 1 µM

Q: And the IC50 (OVCAR-1)?
A: 0.03 to 0.1 µM

Q: What about the IC50 (SK-OV-3) of the same compound?
A: 0.1 to 0.3 µM

Q: And the IC50 (A549)?
A: 0.1 to 0.3 µM

Q: What about the IC50 (A2058) of the same compound?
A: 0.1 to 0.3 µM

Q: And the IC50 (HUVEC)?
A: 0.03 to 0.1 µM

Q: What about the IC50 (MCF7 [8]) of the same compound?
A: < 0.03 µM

Q: What about the IC50 (T47D) of the same compound?
A: < 0.03 µM

Q: What about the IC50 (MDA-231 [9]) of the same compound?
A: < 0.03 µM

Q: What about the IC50 (MDA_MB-435 [10]) of the same compound?
A: 0.03 to 0.1 µM

Q: What about the IC50 (HS578) of the same compound?
A: 0.03 to 0.1 µM

Q: What about the IC50 (HCT116-P53(−)) of the same compound?
A: 0.1 to 0.3 µM

Q: What about the IC50 (SW480) of the same compound?
A: 0.3 to 1 µM

Q: What about the IC50 (DLD1) of the same compound?
A: ~1 µM

Q: And the IC50 (PC3)?
A: 0.1 to 0.3 µM

Q: And the IC50 (DU145)?
A: 0.3 to 1 µM

Q: And the IC50 (OVCAR-5)?
A: 0.03 to 0.1 µM

Q: And the IC50 (NCI-H460)?
A: 0.03 to 0.1 µM

Q: And the IC50 (UACC257)?
A: 0.1 to 0.3 µM
